Legend:
[1] = system: electrical power of four rat brain areas (frontal cortex, hippocampus, striatum, reticular formation); conditions: literature (Dimpfel et al., 1987; Dimpfel, 2003); cited from earlier work
[2] = system: electrical power of four rat brain areas (frontal cortex, hippocampus, striatum, reticular formation); assay: EEG measurements (Tele-Stereo-EEG) in freely-moving rats after single intraperitoneal injection; format: in vivo, Fisher rats
From the text: Analysis of brain field potentials (“Tele-Stereo-EEG”) has been proven to be a very sensitive tool for the characterization of drug effects on the central nervous system (Dimpfel et al., 1986). After administration of a centrally active drug, quantitative changes in the brain field potentials can be considered as a characteristic fingerprint of that particular drug. “Fingerprints” of more than 100 compounds have been obtained including 8 established drug categories, e.g. stimulants, sedatives, hallucinogenics, tranquilizers, analgesics, antidepressants, neuroleptics, and narcotics. Different dosages of the same drug cause quantitative changes in electrical power. […] Direct comparison with specific reference drugs, or by discriminant analysis with reference to an extensive fingerprint database, permits the detection of any possible similarities with established drugs. In general, “fingerprints” show prominent differences for drugs prescribed for different indications and are similar for drugs with similar indication (Dimpfel, 2003). Furthermore, the pattern of EEG changes in the rat is a useful tool in predicting possible changes in the EEG power spectrum in humans.
Adult Fisher rats (4-6 month of age and day-night converted, bodyweight approximately 400 g) were implanted with 4 bipolar concentric steel electrodes using a stereotaxic surgical procedure. According to the coordinates of Paxinos and Watson (1982), all four electrodes were placed 3 mm lateral within the left hemisphere. Anterior coordinates were 12.2, 5.7, 9.7 and 3.7 mm for frontal cortex, hippocampus, striatum and reticular formation, respectively. A baseplate carrying the electrodes and a 5-pin-plug was fixed to the skull by dental cement attached to 3 steel screws fixed into the skull. Animals were given two weeks for recovery from the surgical procedure.
EEG signals were recorded from frontal cortex, hippocampus, striatum and reticular formation and were amplified and processed as described by Dimpfel et al. (1986). After automatic artefact rejection, signals were collected in sweeps of 4 s duration and submitted to Fast Fourier transformation. The resulting electrical power spectra were divided into 6 frequency ranges: delta (0.8-4.5 Hz); theta (4.75-6.75 Hz); alpha1 (7.00-9.50 Hz); alpha2 (9.75-12.50 Hz); beta (12.75-18.50 Hz); beta2 (18.75-35.00 Hz). […] In an off-line procedure spectra were averaged to give 15 minute or longer periods for further statistical analysis.
Four doses of KTX 0101 (sodium (R)-3-hydroxybuytrate: 100, 300, 600 and 1000 mg/kg body weight) (supplied by Solvias AG, CH 4002 Basel, Switzerland, batch No: SO-1058.047.1.120) and a vehicle control (0.9% w/v saline) were administered intraperitoneally to a group of 12 animals using a crossover design with at least 3 drug holidays in between the applications. After a pre-drug period of 45 minutes for baseline recording, drug effects were observed continuously for 300 minutes. Changes of electrical power (μV2/W) are expressed as percentage of the 45 minute pre-drug values. Multivariate statistics were calculated according to Ahrens and Läuter (1974).

[3] = Plasma determination of (R)-3-hydroxybutyrate after intraperitoneal injection; format: in vivo, Sprague-Dawley rats; conditions: rat
Description: (§1) One hundred and seventy-one male Sprague-Dawley rats (weight range 200-250 g) housed on a standard […] were used. Animals had free access to a standard pelleted rat diet and tap water at all times. KTX 0101 (sodium (R)-3-hydroxybuytrate; 100, 300, 600 and 1000 mg/kg body weight) supplied by Sigma (H6501, Lot 111K2618) was administered by intraperitoneal injection. Control animals received the appropriate 0.9% saline vehicle via the same route. Animals were killed by CO2 asphyxiation 0 h, 0.5 h, 1.0 h or 2.0 h after dosing and a terminal blood sample was collected by cardiac puncture. Blood was taken in lithium heparinised tubes and kept on ice prior to centrifugation to yield the plasma samples for analysis.
Commercial clinical assay kits for the determination of D-β-hydroxybutyrate were obtained from Randox Laboratories (Antrim, UK). The kit quantified NADH via the activity of β-hydroxybutyrate dehydrogenase measured as an increase in OD340 nm. An alkaline pH is necessary to drive the reaction equilibrium towards the production of NADH and acetoacetate.
This spectrophotometric assay was modified for application to a 96 well microplate format. The reaction rate was then determined from the increase in OD340 nm over a 1 minute time course, after allowing a necessary period for the reaction rate to settle.

[4] = Plasma determination of acetoacetate after intraperitoneal injection; format: in vivo, Sprague-Dawley rats; conditions: 30 min after dosing, rat
Description: as §1
The assay developed for the determination of acetoacetate was based on previously published clinical assays (Li et al, 1980; McMurray et al, 1984). A different assay buffer was prepared (0.1M Na2PO4 adjusted to pH 7.0 with HCl) in order to shift the equilibrium of the reaction to production of β hydroxybutyrate and NAD+. Other modifications included the additional use of sodium oxalate at a final assay concentration of 20 mM to inhibit lactate dehydrogenase (LDH) present in the plasma samples. […]
Acetoacetate was measured via the reduction in OD340 nm over a 1 minute period after allowing for the reaction rate to settle.

## N[C@@H](Cc1ccc(O)c(O)c1)C(=O)O [L-DOPA]
[1]
  EEG frequency changes of drugs enhancing dopaminergic function: decrease delta, theta and alpha2 frequencies

## C[C@@H](O)CC(=O)[O-].[Na+] [KTX 0101, sodium (R)-3-hydroxybuytrate]
[2]; 100 mg/kg body weight ip, rat
  Duration of EEG effects: 1 to 2 h
  Statistical significance of EEG changes: not statistically significant
[2]; 100 mg/kg body weight ip, rat, vs pre-drug values
  Changes in EEG power spectrum (frequency changes): decrease of electrical power mainly with regard to alpha2
[2]; 300 mg/kg ip, rat
  Duration of EEG pattern of changes: 2 h
  Statistical significance of EEG changes: only statistically significant in the reticular formation
[2]; 300 mg/kg ip, rat, vs pre-drug values
  Changes in EEG power spectrum (frequency changes): decreases in alpha2 power throughout all brain regions
[2]; 600 mg/kg ip, rat, brain regions except reticular formation
  Duration of EEG effects: ~2 h
[2]; 600 mg/kg ip, rat, including first hour within striatum and all 24 variables
  Statistical significance of EEG changes: statistically significant
[2]; 600 mg/kg ip, rat, reticular formation
  Duration of decreases in EEG power in the reticular formation: persisted throughout the third hour
[2]; 1000 mg/kg ip, rat
  Changes in EEG power spectrum (frequency changes): identical pattern of change, but with more prominent decreases of power
  Duration of decreases of EEG power: lasting into the third hour
[2]; 1000 mg/kg ip, rat, even for the 4th hour within the reticular formation
  Statistical significance of EEG changes: statistically significant
[2]; 1000 mg/kg ip, rat, reticular formation, total experimental time
  Duration of decreases of EEG power in the reticular formation: 5 h
[2]; 24 variables, 20th to 50th min after single-dose application, rat
  Similarity of qEEG fingerprint to drug classes by discriminant analysis: close proximity to the dopamine reuptake inhibitor, cocaine and the dopamine releasing agent, d-amphetamine
[2]; after ip injection, rat
  Period of greatest changes in EEG patterns: 5 to 65 min
[2]; dose range 300 to 1000 mg/kg ip, rat
  EEG changes, summary over dose range: clear, dose- and time-dependent statistically significant changes
[2]; rat, ip
  Specific EEG frequencies changed: decrease the delta, theta and alpha2 EEG frequencies
[2]; single ip injection, range 100 to 1000 mg/kg, freely-moving rats
  EEG power spectrum changes, dose dependence: clear, dose-dependent changes in the EEG power spectrum
[3]; 100, 300, 600 and 1000 mg/kg ip
  Plasma concentration of (R)-3-hydroxybutyrate: clear dose-dependent increases
[3]; 100-1000 mg/kg ip, after injection
  Time at which plasma (R)-3-hydroxybutyrate had returned to control values: ≤ 1 h
[3]; 100-1000 mg/kg ip, first sample
  Time of highest elevations in plasma (R)-3-hydroxybutyrate: 30 min
[4]; 600 mg/kg ip
  Plasma concentration of acetoacetate: significantly increased
[4]; 1000 mg/kg ip
  Plasma concentration of acetoacetate: significantly increased

## Oc1cc2c(cc1O)C(c1ccccc1)CNCC2 (stereo not shown) [SKF 38393]
[1]
  EEG frequency changes of drugs enhancing dopaminergic function: decrease delta, theta and alpha2 frequencies

Source: patent US20230165817A1, “DOPAMINERGIC MIMETICS” (TDELTAS LIMITED, priority 2004, published 2023)
